Laboratory results: PMC9605072, “Guanidine Derivatives of Quinazoline-2,4(1H,3H)-Dione as NHE-1 Inhibitors and Anti-Inflammatory Agents” (Life, 2022)
Entries after “also recorded” stand apart in the source; their conditions may differ.

Tests used:
[1] = test system: rat intraocular pressure; assay: Intraocular pressure study (TonoVet); type: in vivo; conditions: rats; 0.4% eye drops; m ± SD, n = 5
Experimental: Intraocular pressure was measured on 75 adult outbred rats of both sexes with a TonoVet device (Finland) as reported by us previously.
To access the influence on rat eye aqueous humor formation, the studied compounds were administered as 0.4% eye drops. […] Introduction of 5-bromine (4b) or acyclic guanidine N^1 , N^3 -side chains (3a) led to 2- and 3-fold activity reduction, respectively.

[2] = Cytotoxicity, lactate dehydrogenase (LDH) assay; type: cell-based, mice; conditions: C57bl/6j, mouse, primary peritoneal macrophages stimulated with E. coli LPS; LPS-stimulated macrophages; n = 3; read-out: LDH CC50 ± SE
Experimental: (§1) The activity of lactate dehydrogenase (LDH) in a cell culture medium was determined as reported by us previously with a microplate reader Infinite M200 PRO (Tecan, Austria).
(§2) Given our primary focus on the development of agents against cytokine-mediated tissue damage, we evaluated the target compounds as inhibitors of pro-inflammatory macrophage activation. Primary peritoneal macrophages were isolated from C57bl/6j mice, pooled, and stimulated with E. coli LPS as TLR4 agonist. Pro-inflammatory activation was assessed as nitric oxide (NO) synthesis and interleukin-6 (IL-6) secretion. The cytotoxicity of the compounds was monitored in parallel using the lactate dehydrogenase assay.
(§3) In an attempt to identify safer alternatives to steroid anti-inflammatory agents, it is mandatory to evaluate lead compounds for immunodepressant activity. To do so, we determined the influence of compound 4a on macrophage phagocytosis after 72 h of incubation. Cell viability was monitored in parallel via the LDH assay.

[3] = test system: C57bl/6j peritoneal macrophages; assay: Cytotoxicity, lactate dehydrogenase (LDH) assay; type: cell-based, mice; conditions: 72 h of incubation, in parallel to phagocytosis
Experimental: as §1, §2, §3

[4] = test system: LPS-stimulated C57bl/6j peritoneal macrophages; assay: LPS-induced IL-6 secretion in primary peritoneal macrophages (ELISA); type: cell-based, mice; conditions: Mus musculus, Peritoneal macrophage; LPS 100 ng/mL; n = 3; read-out: IL-6 Secretion IC50 ± SE
Experimental: (§4) Primary C57bl/6j murine macrophages were elicited with intraperitoneal injection of 3% peptone solution as per the standard procedure. Stimulation of inflammatory response was performed with E. coli O127:B8 LPS (100 ng/mL final concentration).
(§5) Nitric oxide was determined in culture supernatants as a nitrite anion with a standard Griess reagent after 22 h of incubation with test compounds at a wavelength of 550 nm with a microplate reader Infinite M200 PRO (Tecan GmbH, Grodig, Austria). Concentrations of IL-6 and TNF- α in cell supernatants were quantified with commercial ELISA kits according to the manufacturer’s instructions (Cloud-clone Corp., Katy, TX, USA).
as §2

[5] = test system: rabbit platelets; assay: ADP-induced platelet aggregation assay; type: cell-based; conditions: Oryctolagus cuniculus, m ± SD, n = 5
Experimental: Platelet aggregation was assessed on a two-channel laser analyzer “BIOLA-220 LA” (Russia) as described previously using rabbit platelets.

[6] = molecular target: T1, rabbit platelet NHE-1 (Oryctolagus cuniculus, UniProt P23791); assay: NHE-1 inhibition assay (rabbit platelets, laser aggregometer); type: cell-based
T1 construct: endogenous in cells; host or cells: rabbit platelets
T1 sequence (P23791 whole entry): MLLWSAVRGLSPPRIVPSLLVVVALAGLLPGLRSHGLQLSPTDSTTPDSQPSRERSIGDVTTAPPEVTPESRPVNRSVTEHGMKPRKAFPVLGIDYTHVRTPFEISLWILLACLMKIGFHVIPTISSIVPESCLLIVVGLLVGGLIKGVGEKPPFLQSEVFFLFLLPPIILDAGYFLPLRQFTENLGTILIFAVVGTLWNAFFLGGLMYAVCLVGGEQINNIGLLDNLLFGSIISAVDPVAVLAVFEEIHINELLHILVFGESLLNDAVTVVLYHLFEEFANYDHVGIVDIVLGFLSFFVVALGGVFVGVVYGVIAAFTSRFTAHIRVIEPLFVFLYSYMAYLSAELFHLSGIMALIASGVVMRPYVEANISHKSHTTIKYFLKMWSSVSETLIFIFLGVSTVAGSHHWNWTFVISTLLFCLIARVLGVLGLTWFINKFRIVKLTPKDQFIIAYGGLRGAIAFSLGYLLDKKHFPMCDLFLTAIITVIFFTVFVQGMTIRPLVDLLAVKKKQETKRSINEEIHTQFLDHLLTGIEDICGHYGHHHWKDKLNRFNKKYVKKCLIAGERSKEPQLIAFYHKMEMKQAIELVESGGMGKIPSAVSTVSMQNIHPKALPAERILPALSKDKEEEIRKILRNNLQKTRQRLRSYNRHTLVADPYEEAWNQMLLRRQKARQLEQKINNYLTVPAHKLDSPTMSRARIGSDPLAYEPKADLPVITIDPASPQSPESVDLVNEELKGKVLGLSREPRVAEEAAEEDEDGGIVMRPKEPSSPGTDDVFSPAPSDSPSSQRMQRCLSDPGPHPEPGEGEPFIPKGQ
Experimental: Inhibition of rabbit platelet NHE-1 was determined according to the method of [8, 9] in our modification, which was reported by us previously using the laser aggregometer BIOLA-220 LA (Russia).
Target compounds were evaluated as inhibitors of rabbit platelet NHE-1 (Table 1). It was shown that the substitution of H^5 with bromine decreased the activity of compounds 3b and 4b, indicating possible steric limitations of the binding site.

[7] = test system: LPS-stimulated C57bl/6j peritoneal macrophages; assay: LPS-induced nitric oxide synthesis in primary peritoneal macrophages (Griess); type: cell-based, mice; conditions: Mus musculus, Peritoneal macrophage; LPS 100 ng/mL; 22 h incubation; n = 3; read-out: NO Synthesis IC50 ± SE
Experimental: as §4, §5, §2

[8] = test system: male ICR mice; assay: Tail suspension test (antidepressant activity); type: in vivo; conditions: 4.0 mg/kg; mean ± SD, n = 6; vehicle 264.8 ± 11.6 s
Experimental: Antidepressant activity was determined on 36 male ICR mice weighing 22–25 g as described in [14] using the Panlab LE808 apparatus.
The tail suspension test was used to assess the antidepressant activity of the most-active NHE-1 inhibitors.

[9] = test system: C57bl/6j peritoneal macrophages; assay: Macrophage phagocytosis assay; type: cell-based, mice
Experimental: The phagocytic activity of peritoneal macrophages was assessed after staining with Azur-Eosin with Romanovsky’s modifications as reported by us previously with a light microscopy using a Mikmed-6 (LOMO, Saint Petersburg, Russia) equipped with a digital camera.
as §3
(Figure 3). The mean number of phagocytosed particles per cell was […]. […] Macrophage spreading was registered and visually scored as a phenotypic marker of cell activation phagocytic capacity.

[10] = test system: C57bl/6j mice; assay: LPS-induced acute lung injury model; type: in vivo; conditions: 4a 50 mg/kg (30 mg/kg in source) i.p.
Experimental: Prior to the experiment, C57BL/6J mice were randomized according to body weight and motor activity in an open field test. […] Animals of the control group were injected with an equal volume of the vehicle. Animals were anesthetized with isoflurane inhalation until the breathing rate decreased 1 h later. Mice were suspended by the front incisors on an inclined surgical table; the tongue was pulled out with narrow curved tweezers, and 1 mg/mL of E. coli O127:B8 LPS (Sigma-Aldrich, Israel) in 1 mL/kg sterile saline was injected into the back of the oropharynx to allow aspiration. Intact animals received an equal volume of sterile saline in a similar way.
The open field test was performed with the NPO “Open Science” (Russia) arena of 44 cm diameter and 32 cm wall height under 300 lux lighting as reported by us previously.
Mice were anesthetized with 500 mg/kg chloral hydrate (Sigma-Aldrich, Germany) intraperitoneally 24 h after LPS administration. Blood and bronchoalveolar lavage (BAL) sampling was performed as described in [13]. Leukocyte counts and the lung permeability index were determined as described by us previously.
Histological and immunohistological assessment of tissue sections was performed in a semi-quantitative way on paraffin sections after hematoxylin and eosin staining with a light microscope (Zeiss, Germany) with double-blinding. The degree of inflammation was determined as previously reported.
Lung injury was assessed 24 h later based on behavioral, biochemical, cytological, and morphological alterations.

## Nc1nnc(Cn2c(=O)c3ccccc3n(Cc3nnc(N)[nH]3)c2=O)[nH]1 [Compound 4a, 1,3-Bis[(5-amino-4H-1,2,4-triazol-3-yl)methyl]quinazoline-2,4(1H,3H)-dione]
[1]
  Max IOP Reduction: 28.25 ± 7.92%
[2]
  CC50: > 100 µM
[3]
  Cell viability (LDH assay): slightly decreased
[4]
  IC50: 51.8 ± 1.65 µM
[5]
  inhibition at 100 µM: 39.3 ± 11.9%
other
  melting point: 314 to 318 °C
[6]; 10 nM, m ± SD, n = 6, rabbit platelets
  inhibition at 0.01 µM: 29.4 ± 4.4%
[6]; rabbit platelets
  IC50: 0.324 µM
[6]; ratio of IC50 vs amiloride
  NHE-1 potency relative to amiloride: exceeding amiloride by four times
[7]
  IC50: 73 ± 7.83 µM
[8]
  Immobilization Time: 164.4 ± 23.19 s
[9]; 72 h of incubation
  Decrease of the mean number of phagocytosed particles: 23%
  Phagocytic activity: insignificantly influenced
[9]; yeast-treated macrophages, 72 h
  Macrophage spreading (visually scored): marginally reduced spreading
[10]
  Exploratory activity, open field test: comparably improved exploratory activity
[10]; 2 and 22 h after LPS
  Motor activity, open field test: restored the motor activity of animals
[10]; 24 h after LPS
  CD68+ macrophage accumulation in lung tissue (immunostaining): effectively limited LPS-induced inflammation
  Lung tissue histology (hematoxylin and eosin): reduced LPS-induced inflammation in mouse lung tissue
  Plasma IL-6: significantly reduced plasma IL-6
  Pulmonary (alveolar) vessel permeability: preserved pulmonary vessels’ permeability
  Segmented neutrophils in BAL: significantly ameliorated the accumulation of segmented neutrophils; also recorded: most pronounced inhibition of the neutrophil migration
